Results as given in PubChem BioAssay (NCI).
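Method: 48-hour compound exposure of cells in 96-well plates, five concentrations, linear interpolation of endpoints. Abbreviation: GI50, concentration required for 50% inhibition of growth. TGI: total growth inhibition.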

Key:
Experiment in all cases: NCI tumour cell line growth inhibition, 48 h
DU-145 prostate = tested on: DU-145 prostate
OVCAR-4 ovarian = tested on: OVCAR-4 ovarian
NCI-H23 lung = tested on: NCI-H23 lung
NCI-H226 lung = tested on: NCI-H226 lung
HCT-15 colon = tested on: HCT-15 colon
NCI/ADR-RES ovarian = tested on: NCI/ADR-RES ovarian
LOX IMVI melanoma = tested on: LOX IMVI melanoma
HCT-116 colon = tested on: HCT-116 colon
OVCAR-5 ovarian = tested on: OVCAR-5 ovarian
SN12C renal = tested on: SN12C renal
PC-3 prostate = tested on: PC-3 prostate
BT-549 breast = tested on: BT-549 breast
MDA-MB-231 breast = tested on: MDA-MB-231 breast
COLO 205 colon = tested on: COLO 205 colon
HOP-62 NSCLC = tested on: HOP-62 NSCLC
RPMI-8226 leukemia = tested on: RPMI-8226 leukemia
OVCAR-3 ovarian = tested on: OVCAR-3 ovarian
SNB-75 CNS = tested on: SNB-75 CNS
CCRF-CEM leukemia = tested on: CCRF-CEM leukemia
SF-539 CNS = tested on: SF-539 CNS
NCI-H522 lung = tested on: NCI-H522 lung
A498 renal = tested on: A498 renal
UACC-257 melanoma = tested on: UACC-257 melanoma
MDA-MB-435 = tested on: MDA-MB-435
TK-10 renal = tested on: TK-10 renal
IGROV1 ovarian = tested on: IGROV1 ovarian
KM12 colon = tested on: KM12 colon
SK-OV-3 ovarian = tested on: SK-OV-3 ovarian
SK-MEL-5 melanoma = tested on: SK-MEL-5 melanoma
HT29 colon = tested on: HT29 colon
U251 CNS = tested on: U251 CNS
SK-MEL-2 melanoma = tested on: SK-MEL-2 melanoma
MCF7 breast = tested on: MCF7 breast
MOLT-4 leukemia = tested on: MOLT-4 leukemia
UACC-62 melanoma = tested on: UACC-62 melanoma
SF-295 CNS = tested on: SF-295 CNS
HOP-92 NSCLC = tested on: HOP-92 NSCLC
SW-620 colon = tested on: SW-620 colon
NCI-H460 lung = tested on: NCI-H460 lung
OVCAR-8 ovarian = tested on: OVCAR-8 ovarian
SNB-19 CNS = tested on: SNB-19 CNS
HCC-2998 colon = tested on: HCC-2998 colon
A549 NSCLC = tested on: A549 NSCLC
T-47D breast = tested on: T-47D breast
SF-268 CNS = tested on: SF-268 CNS
786-0 renal = tested on: 786-0 renal
M14 melanoma = tested on: M14 melanoma
HL-60(TB) leukemia = tested on: HL-60(TB) leukemia
SK-MEL-28 melanoma = tested on: SK-MEL-28 melanoma
HS 578T breast = tested on: HS 578T breast
ACHN renal = tested on: ACHN renal
K-562 leukemia = tested on: K-562 leukemia
SR leukemia = tested on: SR leukemia
CAKI-1 renal = tested on: CAKI-1 renal
MALME-3M melanoma = tested on: MALME-3M melanoma
MDA-N = tested on: MDA-N
EKVX NSCLC = tested on: EKVX NSCLC
RXF 393 renal = tested on: RXF 393 renal
DMS 273 small cell lung = tested on: DMS 273 small cell lung
M19-MEL melanoma = tested on: M19-MEL melanoma
DLD-1 colon = tested on: DLD-1 colon
LXFL 529 NSCLC = tested on: LXFL 529 NSCLC
DMS 114 small cell lung = tested on: DMS 114 small cell lung
UO-31 renal = tested on: UO-31 renal
KM20L2 colon = tested on: KM20L2 colon
SNB-78 CNS = tested on: SNB-78 CNS

## C/C=C(\C)C(=O)OC1/C=C(\C)CC/C=C(\C)CC2OC(=O)C(C)(OC(C)=O)C12 (centres undefined)
DU-145 prostate
  TGI: > 100 µM
OVCAR-4 ovarian
  TGI: > 100 µM
NCI-H23 lung
  TGI: > 100 µM
NCI-H226 lung
  TGI: > 100 µM
HCT-15 colon
  TGI: > 100 µM
NCI/ADR-RES ovarian
  TGI: > 100 µM
LOX IMVI melanoma
  TGI: > 100 µM
HCT-116 colon
  TGI: > 100 µM
OVCAR-5 ovarian
  TGI: > 100 µM
SN12C renal
  TGI: > 100 µM
PC-3 prostate
  TGI: > 100 µM
BT-549 breast
  TGI: > 100 µM
MDA-MB-231 breast
  TGI: > 100 µM
COLO 205 colon
  TGI: > 100 µM
HOP-62 NSCLC
  TGI: > 100 µM
RPMI-8226 leukemia
  TGI: > 100 µM
OVCAR-3 ovarian
  TGI: > 100 µM
SNB-75 CNS
  TGI: > 100 µM
CCRF-CEM leukemia
  TGI: > 100 µM
SF-539 CNS
  TGI: > 100 µM
NCI-H522 lung
  TGI: > 100 µM
A498 renal
  TGI: > 100 µM
UACC-257 melanoma
  TGI: > 100 µM
MDA-MB-435
  TGI: > 100 µM
TK-10 renal
  TGI: > 100 µM
IGROV1 ovarian
  TGI: > 100 µM
KM12 colon
  TGI: > 100 µM
SK-OV-3 ovarian
  TGI: > 100 µM
SK-MEL-5 melanoma
  TGI: > 100 µM
HT29 colon
  TGI: > 100 µM
U251 CNS
  TGI: > 100 µM
SK-MEL-2 melanoma
  TGI: > 100 µM
MCF7 breast
  TGI: > 100 µM
MOLT-4 leukemia
  TGI: > 100 µM
UACC-62 melanoma
  TGI: > 100 µM
SF-295 CNS
  TGI: > 100 µM
HOP-92 NSCLC
  TGI: > 100 µM
SW-620 colon
  TGI: > 100 µM
NCI-H460 lung
  TGI: > 100 µM
OVCAR-8 ovarian
  TGI: > 100 µM
SNB-19 CNS
  TGI: > 100 µM
HCC-2998 colon
  TGI: > 100 µM
A549 NSCLC
  TGI: > 100 µM
T-47D breast
  TGI: > 100 µM
SF-268 CNS
  TGI: > 100 µM
786-0 renal
  TGI: > 100 µM
M14 melanoma
  TGI: > 100 µM
HL-60(TB) leukemia
  TGI: > 100 µM
SK-MEL-28 melanoma
  TGI: > 100 µM
HS 578T breast
  TGI: > 100 µM
ACHN renal
  TGI: > 100 µM
K-562 leukemia
  TGI: > 100 µM
SR leukemia
  TGI: > 100 µM
CAKI-1 renal
  TGI: > 100 µM
MALME-3M melanoma
  TGI: > 100 µM
MDA-N
  TGI: > 100 µM
EKVX NSCLC
  TGI: > 100 µM
RXF 393 renal
  TGI: > 100 µM

## CCC[CH2][Sn]1([CH2]CCC)[S]CC[N]1S(=O)(=O)c1ccc(C)cc1
DMS 273 small cell lung
  GI50: 1.65 µM
  TGI: 3.16 µM
OVCAR-4 ovarian
  GI50: 1.85 µM
  TGI: 3.27 µM
NCI-H23 lung
  GI50: 0.638 µM
  TGI: 1.94 µM
NCI-H226 lung
  GI50: 2.03 µM
  TGI: 3.45 µM
HCT-15 colon
  GI50: 1.51 µM
  TGI: 2.93 µM
HCT-116 colon
  GI50: 1.42 µM
  TGI: 2.81 µM
M19-MEL melanoma
  GI50: 1.32 µM
  TGI: 3.03 µM
OVCAR-5 ovarian
  GI50: 2.82 µM
  TGI: 6.12 µM
COLO 205 colon
  GI50: 1.63 µM
  TGI: 3.09 µM
HOP-62 NSCLC
  GI50: 2.22 µM
  TGI: 3.83 µM
RPMI-8226 leukemia
  GI50: 0.386 µM
  TGI: 2.01 µM
OVCAR-3 ovarian
  GI50: 1.59 µM
  TGI: 2.93 µM
SNB-75 CNS
  GI50: 1.13 µM
  TGI: 2.38 µM
SF-539 CNS
  GI50: 1.36 µM
  TGI: 2.68 µM
NCI-H522 lung
  GI50: 0.217 µM
  TGI: 0.508 µM
UACC-257 melanoma
  GI50: 1.23 µM
  TGI: 2.5 µM
DLD-1 colon
  GI50: 1.58 µM
  TGI: 2.99 µM
TK-10 renal
  GI50: 1.64 µM
  TGI: 3.04 µM
LXFL 529 NSCLC
  GI50: 0.33 µM
  TGI: 1.12 µM
IGROV1 ovarian
  GI50: 1.7 µM
  TGI: 3.27 µM
KM12 colon
  GI50: 2.02 µM
  TGI: 3.59 µM
DMS 114 small cell lung
  GI50: 0.659 µM
  TGI: 2.09 µM
SK-MEL-5 melanoma
  GI50: 1.68 µM
  TGI: 3.2 µM
HT29 colon
  GI50: 2.04 µM
  TGI: 3.73 µM
U251 CNS
  GI50: 0.885 µM
  TGI: 2.1 µM
SK-MEL-2 melanoma
  GI50: 1.39 µM
  TGI: 2.73 µM
MOLT-4 leukemia
  GI50: 1.14 µM
  TGI: 4.04 µM
UO-31 renal
  GI50: 1.14 µM
  TGI: 2.35 µM
UACC-62 melanoma
  GI50: 1.47 µM
  TGI: 3.13 µM
SF-295 CNS
  GI50: 1.97 µM
  TGI: 3.42 µM
HOP-92 NSCLC
  GI50: 1.19 µM
  TGI: 2.46 µM
NCI-H460 lung
  GI50: 2.5 µM
  TGI: 5.44 µM
OVCAR-8 ovarian
  GI50: 1.63 µM
  TGI: 4.16 µM
SNB-19 CNS
  GI50: 1.45 µM
  TGI: 2.75 µM
HCC-2998 colon
  GI50: 1.95 µM
  TGI: 3.44 µM
A549 NSCLC
  GI50: 3.15 µM
  TGI: 9.32 µM
SF-268 CNS
  GI50: 1.19 µM
  TGI: 2.54 µM
786-0 renal
  GI50: 1.26 µM
  TGI: 2.53 µM
M14 melanoma
  GI50: 1.64 µM
  TGI: 3.12 µM
HL-60(TB) leukemia
  GI50: 0.581 µM
  TGI: 2.73 µM
SK-MEL-28 melanoma
  GI50: 1.29 µM
  TGI: 2.61 µM
ACHN renal
  GI50: 1.67 µM
  TGI: 3.11 µM
K-562 leukemia
  GI50: 0.341 µM
  TGI: 1.97 µM
KM20L2 colon
  GI50: 2.27 µM
  TGI: 4.46 µM
CAKI-1 renal
  GI50: 0.675 µM
  TGI: 1.96 µM
MALME-3M melanoma
  GI50: 1.09 µM
  TGI: 2.33 µM

## CCC(CO)Nc1nc2c(c(=O)n(C)c(=O)n2C)n1CCO (centres undefined)
DMS 273 small cell lung
  TGI: > 100 µM
NCI-H23 lung
  TGI: > 100 µM
NCI-H226 lung
  TGI: > 100 µM
HCT-15 colon
  TGI: > 100 µM
HCT-116 colon
  TGI: > 100 µM
M19-MEL melanoma
  TGI: > 100 µM
OVCAR-5 ovarian
  TGI: > 100 µM
SN12C renal
  TGI: > 100 µM
COLO 205 colon
  TGI: > 100 µM
RPMI-8226 leukemia
  TGI: > 100 µM
OVCAR-3 ovarian
  TGI: > 100 µM
SNB-75 CNS
  TGI: > 100 µM
SF-539 CNS
  TGI: > 100 µM
UACC-257 melanoma
  TGI: > 100 µM
TK-10 renal
  TGI: > 100 µM
LXFL 529 NSCLC
  TGI: > 100 µM
IGROV1 ovarian
  TGI: > 100 µM
KM12 colon
  TGI: > 100 µM
SK-OV-3 ovarian
  TGI: > 100 µM
SK-MEL-5 melanoma
  TGI: > 100 µM
HT29 colon
  TGI: > 100 µM
U251 CNS
  TGI: > 100 µM
SK-MEL-2 melanoma
  TGI: > 100 µM
MOLT-4 leukemia
  TGI: > 100 µM
UO-31 renal
  TGI: > 100 µM
UACC-62 melanoma
  TGI: > 100 µM
SF-295 CNS
  TGI: > 100 µM
HOP-92 NSCLC
  TGI: > 100 µM
SW-620 colon
  TGI: > 100 µM
SNB-78 CNS
  TGI: 53.5 µM
OVCAR-8 ovarian
  TGI: > 100 µM
SNB-19 CNS
  TGI: > 100 µM
HCC-2998 colon
  TGI: > 100 µM
A549 NSCLC
  TGI: > 100 µM
SF-268 CNS
  TGI: > 100 µM
786-0 renal
  TGI: > 100 µM
SK-MEL-28 melanoma
  TGI: > 100 µM
ACHN renal
  TGI: > 100 µM
K-562 leukemia
  TGI: > 100 µM
SR leukemia
  TGI: > 100 µM
KM20L2 colon
  TGI: > 100 µM
MALME-3M melanoma
  TGI: > 100 µM
EKVX NSCLC
  TGI: > 100 µM
RXF 393 renal
  TGI: > 100 µM
